We go through 48 compounds from patent US9884832B2 (priority 2011, dated 2018).

As usually defined, the inhibition is the relative decrease from the control value, in per cent.

AM2 S31 (wild-type serine at position 31 in the M2 protein), influenza virus A/Udorn/72, sequence (P0DOF5 whole entry, looked up): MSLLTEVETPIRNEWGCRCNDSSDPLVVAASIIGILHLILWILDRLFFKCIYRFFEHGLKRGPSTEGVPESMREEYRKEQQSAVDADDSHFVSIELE

The first test addresses AM2 S31 (wild-type serine at position 31 in the M2 protein), influenza virus A/Udorn/72 (Influenza A virus, UniProt P0DOF5). Put plainly: cell-based. Particulars: 100 uM; Xenopus oocytes; activity range class; read-out: S31 OOcyte Inhibition at 100 uM (%).
Regarding `Brc1ccc(CNC23CC4CC(CC(C4)C2)C3)s1` [Example 81a, N-((5-Bromothiophen-2-yl)methyl)adamantan-1-amine], the inhibition at 100 µM lay in the range of 31 to 95%.
Regarding `Brc1ccc(-c2cc(CNC34CC5CC(CC(C5)C3)C4)no2)cc1` [Example 121a, N-((5-(4-bromophenyl)isoxazol-3-yl)methyl)adamantan-1-amine], the inhibition at 100 µM lay within 0 to 30%.
Turning to `c1cc(CNC23CC4CC(CC(C4)C2)C3)cc(-c2cccs2)c1` [Example 34a, N-(3-(thiophen-2-yl)benzyl)adamantan-1-amine], the inhibition at 100 µM is 0 to 30%.
As to `c1ccc2cc(COc3ccc(CNC45CC6CC(CC(C6)C4)C5)cc3)ccc2c1` [Example 38a, N-(4-(naphthalen-2-ylmethoxy)benzyl)adamantan-1-amine], the inhibition at 100 µM lay within 0 to 30%.
Turning to `Cc1ncc(-c2ccc(CNC34CC5CC(CC(C5)C3)C4)s2)s1` [Example 154a, N-((5-(2-methylthiazol-5-yl)thiophen-2-yl)methyl)adamantan-1-amine], the inhibition at 100 µM lay in the range of 0 to 30%.
Take `c1csc(-c2nnc(CNC34CC5CC(CC(C5)C3)C4)o2)c1` [Example 147a, Adamantan-1-yl-(5-thiophen-2-yl-[1,3,4]oxadiazol-2-ylmethyl)-amine]: the inhibition at 100 µM was 0 to 30%.
As to `CC(C)c1nc(CNC23CC4CC(CC(C4)C2)C3)no1` [Example 102a, N-((5-isopropyl-1,2,4-oxadiazol-3-yl)methyl)adamantan-1-amine], the inhibition at 100 µM was in the range of 0 to 30%.
Consider `COc1ccc(-c2cc(CNC34CC5CC(CC(C5)C3)C4)no2)cc1` [Example 110a, N-((5-(4-methoxyphenyl)isoxazol-3-yl)methyl)adamantan-1-amine], for which the inhibition at 100 µM fell in the range of 0 to 30%.
On to `Brc1ncc(CNC23CC4CC(CC(C4)C2)C3)s1` [Example 104a, N-((2-bromothiazol-5-yl)methyl)adamantan-1-amine], for which the inhibition at 100 µM is 0 to 30%.
On the same count and under the same terms, under `Cc1ccc(CNC23CC4CC(CC(C4)C2)C3)c(O)c1` [Example 51a] stands 31 to 95%; under `OC12CC3CC(C1)CC(NCc1cc4cc(Br)sc4s1)(C3)C2` [Example 195a, 3-[(5-Bromo-thieno[2,3-b]thiophen-2-ylmethyl)-amino]-adamantan-1-ol], 0 to 30%.
On to `COc1ccc(-c2nc(CNC34CC5CC(CC(C5)C3)C4)no2)cc1` [Example 126a, N-((5-(4-methoxyphenyl)-1,2,4-oxadiazol-3-yl)methyl)adamantan-1-amine], for which the inhibition at 100 µM was 0 to 30%.
For `Cc1ccc(CNC23CC4CC(CC(C4)C2)C3)cc1` [Example 8a, N-(4-Methylbenzyl)adamantan-1-amine], the inhibition at 100 µM is 31 to 95%.
Turning to `Nc1ncc(CNC23CC4CC(CC(C4)C2)C3)s1` [Example 93a, 5-((adamantan-1-ylamino)methyl)thiazol-2-amine], the inhibition at 100 µM lay in the range of 31 to 95%.
As for `CCSc1ccc(CNC23CC4CC(CC(C4)C2)C3)cc1` [Example 12a, N-(4-(ethylthio)benzyl)adamantan-1-amine], the inhibition at 100 µM is 0 to 30%.
Still for that read-out and setting: under `c1coc(CNC23CC4CC(CC(C4)C2)C3)c1` [Example 69a, Adamantan-1-yl-furan-2-ylmethyl-amine] stands 31 to 95%; under `Oc1cc(-c2ccccc2)ccc1CNC12CC3CC(CC(C3)C1)C2` [Example 47a, 4-(Adamantan-1-ylaminomethyl)-biphenyl-3-ol], 0 to 30%.
On to `c1csc(-c2noc(CNC34CC5CC(CC(C5)C3)C4)n2)c1` [Example 148a, N-((3-(thiophen-2-yl)-1,2,4-oxadiazol-5-yl)methyl)adamantan-1-amine], for which the inhibition at 100 µM fell in the range of 0 to 30%.
With `c1csc(-c2nc(CNC34CC5CC(CC(C5)C3)C4)no2)c1` [Example 146a, N-((5-(thiophen-2-yl)-1,2,4-oxadiazol-3-yl)methyl)adamantan-1-amine], the inhibition at 100 µM lay in the range of 0 to 30%.
Same read-out and setting: under `CC(C)(C)c1nc(CNC23CC4CC(CC(C4)C2)C3)no1` [Example 103a, N-((5-(tert-butyl)-1,2,4-oxadiazol-3-yl)methyl)adamantan-1-amine] stands 0 to 30%; under `c1cc(C2CC2)ccc1CNC12CC3CC(CC(C3)C1)C2` [Example 9a, N-(4-Cyclopropylbenzyl)adamantan-1-amine], 31 to 95%.
Take `O=C1CCCN1c1ccc(CNC23CC4CC(CC(C4)C2)C3)cc1` [Example 45a, 1-(4-((adamantan-1-ylamino)methyl)phenyl)pyrrolidin-2-one]: the inhibition at 100 µM was in the range of 0 to 30%.
As for `c1csc(-c2ncc(CNC34CC5CC(CC(C5)C3)C4)s2)c1` [Example 144a, N-((2-(thiophen-2-yl)thiazol-5-yl)methyl)adamantan-1-amine], the inhibition at 100 µM is 0 to 30%.

The same test, now with this note: Table 1; 100 uM; Xenopus oocytes, pH 5.5, -20 mV; read-out: S31 OOcyte Inhibition at 100 uM (%).
Turning to `CC(C)(C)CC(C)(C)NCc1ccc(O)cc1O` [Example 112, 4-[(1,1,3,3-Tetramethyl-butylamino)-methyl]-benzene-1,3-diol], the inhibition at 100 µM lay in the range of 31 to 95%.
As for `c1c(CNC2C3CC4CC(C3)CC2C4)nc2n1CCS2` (stereo not drawn) [Example 105, Adamantan-2-yl-(2,3-dihydro-imidazo[2,1-b]thiazol-6-ylmethyl)-amine], the inhibition at 100 µM fell in the range of 31 to 95%.
Take `Oc1c(F)cc(CNC23CC4CC(CC(C4)C2)C3)cc1Cl` [Example 68, 4-(Adamantan-1-ylaminomethyl)-2-chloro-6-fluoro-phenol]: the inhibition at 100 µM was 31 to 95%.
`NCc1ccc(CNC23CC4CC(CC(C4)C2)C3)cc1` [Example 13, Adamantan-1-yl-(4-aminomethyl-benzyl)-amine]: the inhibition at 100 µM is 0 to 30%.
As to `COc1cc(CNC23CC4CC(CC(C4)C2)C3)ccc1O` [Example 50, 4-(Adamantan-1-ylaminomethyl)-2-methoxy-phenol], the inhibition at 100 µM was 31 to 95%.
Regarding `c1cc(-c2nnn[nH]2)ccc1CNC12CC3CC(CC(C3)C1)C2` [Example 15, Adamantan-1-yl-[4-(1H-tetrazol-5-yl)-benzyl]amine], the inhibition at 100 µM was 0 to 30%.
`N#Cc1ccc(CNC23CC4CC(CC(C4)C2)C3)cc1` [Example 14, 4-(Adamantan-1-ylaminomethyl)-benzonitrile]: the inhibition at 100 µM fell in the range of 31 to 95%.
Still for that read-out and setting: under `CC(NC1C2CC3CC(C2)CC1C3)c1ccc(O)cc1O` (stereo not drawn) [Example 102, 4-[1-(Adamantan-2-ylamino)-ethyl]-benzene-1,3-diol] stands 31 to 95%.
Consider `Oc1cccc(CNC23CC4CC(CC(C4)C2)C3)c1O` [Example 64, 3-(Adamantan-1-ylaminomethyl)-benzene-1,2-diol], for which the inhibition at 100 µM is 31 to 95%.
Consider `Oc1ccc(CNC23CC4CC(CC(C4)C2)C3)c(Cl)c1` [Example 58, 4-(Adamantan-1-ylaminomethyl)-3-chloro-phenol], for which the inhibition at 100 µM lay within 31 to 95%.
Take `CS(=O)(=O)c1ccc(CNC23CC4CC(CC(C4)C2)C3)cc1` [Example 25, Adamantan-1-yl-(4-methanesulfonyl-benzyl)-amine]: the inhibition at 100 µM lay in the range of 31 to 95%.
`Oc1ccc(CNC2C3CC4CC(C3)CC2C4)c(O)c1` (stereo not drawn) [Example 100, 4-(Adamantan-2-ylaminomethyl)-benzene-1,3-diol]: the inhibition at 100 µM was 31 to 95%.
Consider `Oc1ccc(CNC23CC4CC(CC2C4)C3)c(O)c1` [Example 111, 4-[(Hexahydro-2,5-methano-pentalen-3a-ylamino)-methyl]-benzene-1,3-diol], for which the inhibition at 100 µM is 31 to 95%.
As to `Oc1ccc(CNC23CC4CC(CC(C4)C2)C3)cc1` [Example 9, 4-(Adamantan-1-ylaminomethyl)-phenol], the inhibition at 100 µM is 31 to 95%.
As for `COc1cc(O)ccc1CNC12CC3CC(CC(C3)C1)C2` [Example 56, 4-(Adamantan-1-ylaminomethyl)-3-methoxy-phenol], the inhibition at 100 µM lay within 0 to 30%.

The test is the same for the next values; noted with them: Table 3; 100 uM; Xenopus oocytes, pH 5.5, -20 mV; read-out: S31 OOcyte Inhibition at 100 uM (%).
For the compound `c1csc(-c2ccc(CNC34CC5CC(CC(C5)C3)C4)nn2)c1` [Example 71b, Adamantan-1-yl-(6-thiophen-2-yl-pyridazin-3-ylmethyl)-amine], the inhibition at 100 µM lay within 0 to 30%.
`Clc1ccccc1-c1cc(CNC23CC4CC(CC(C4)C2)C3)no1` [Example 45b, N-((5-(2-chlorophenyl)isoxazol-3-yl)methyl)adamantan-1-amine]: the inhibition at 100 µM fell in the range of 0 to 30%.
On the same count and under the same terms, then `c1nc(N2CCCC2)ncc1CNC12CC3CC(CC(C3)C1)C2` [Example 54b, N-((2-(pyrrolidin-1-yl)pyrimidin-5-yl)methyl)adamantan-1-amine], with 0 to 30%; and `CC(NC12CC3CC(CC(C3)C1)C2)c1ccc(C(C)(C)C)cc1` (stereo not drawn) [Example 3b, N-(1-(4-(tert-butyl)phenyl)ethyl)adamantan-1-amine], with 0 to 30%.
As to `COc1ccsc1-c1cc(CNC23CC4CC(CC(C4)C2)C3)no1` [Example 44b, N-((5-(3-methoxythiophen-2-yl)isoxazol-3-yl)methyl)adamantan-1-amine], the inhibition at 100 µM is 0 to 30%.
Same read-out and setting: then `c1cc2[nH]c(CNC34CC5CC(CC(C5)C3)C4)cc2o1` [Example 78b, Adamantan-1-yl-(4H-furo[3,2-b]pyrrol-5-ylmethyl)-amine], with 31 to 95%; and `CSc1ccccc1-c1cnc(CNC23CC4CC(CC(C4)C2)C3)s1` [Example 76b, Adamantan-1-yl-[5-(2-methylsulfanyl-phenyl)-thiazol-2-ylmethyl]-amine], with 0 to 30%; and `CCCc1nc(CNC23CC4CC(CC(C4)C2)C3)no1` [Example 29b, N-((5-propyl-1,2,4-oxadiazol-3-yl)methyl)adamantan-1-amine], with 0 to 30%.
Regarding `Clc1ccccc1-c1ccc(CNC23CC4CC(CC(C4)C2)C3)nc1` [Example 72b, Adamantan-1-yl-[5-(2-chloro-phenyl)-pyridin-2-ylmethyl]-amine], the inhibition at 100 µM was in the range of 0 to 30%.
Take `COc1ccccc1-c1noc(CNC23CC4CC(CC(C4)C2)C3)n1` [Example 30b, N-((3-(2-methoxyphenyl)-1,2,4-oxadiazol-5-yl)methyl)adamantan-1-amine]: the inhibition at 100 µM was in the range of 0 to 30%.
